In the NIST ThermoML archive (doi:10.1016/j.jct.2008.10.007):

Columns and labels:
[1] = 298.15 K; 101 kPa; Liquid; Vibrating tube method
[2] = excess molar enthalpy (molar enthalpy of mixing); xn = mol fraction of the nth substance listed; settings: 298.15 K, 101 kPa, Liquid, Calvet calorimetry
[3] = xn = mol fraction of the nth substance listed; settings: 298.15 K, 101 kPa, Liquid, Vibrating tube method

CCCOC(=O)CCC [propyl butanoate]
Settings | mass density [kg/m3]
[1] | 867.9

CCCOC(C)=O [propyl ethanoate]
Settings | mass density [kg/m3]
[1] | 882.08

CCCOC=O [propyl methanoate]
Settings | mass density [kg/m3]
[1] | 899.81

CCCOC=O [propyl methanoate] + ClCCCCCl
Settings | excess molar enthalpy [kcal/mol] | mass density [kg/m3]
[2], x1 = 0.0692 | 0.00932 | –
[2], x1 = 0.1586 | 0.0155 | –
[2], x1 = 0.2416 | 0.0191 | –
[2], x1 = 0.3365 | 0.0184 | –
[2], x1 = 0.4234 | 0.0148 | –
[2], x1 = 0.5005 | 0.01 | –
[2], x1 = 0.5667 | 0.00406 | –
[2], x1 = 0.6288 | -0.00382 | –
[2], x1 = 0.6884 | -0.00837 | –
[2], x1 = 0.7528 | -0.00908 | –
[2], x1 = 0.817 | -0.00908 | –
[2], x1 = 0.8815 | -0.00669 | –
[2], x1 = 0.9414 | -0.00311 | –
[3], x1 = 0.0699 | – | 1119.28
[3], x1 = 0.1344 | – | 1105.73
[3], x1 = 0.2012 | – | 1091.45
[3], x1 = 0.3873 | – | 1050.4
[3], x1 = 0.4476 | – | 1036.71
[3], x1 = 0.5676 | – | 1008.76
[3], x1 = 0.6231 | – | 995.55
[3], x1 = 0.6814 | – | 981.44
[3], x1 = 0.7384 | – | 967.39
[3], x1 = 0.7933 | – | 953.67
[3], x1 = 0.8452 | – | 940.47
[3], x1 = 0.8982 | – | 926.78
[3], x1 = 0.9521 | – | 912.65
[3], x1 = 1 | – | 899.81

CCCOC=O [propyl methanoate] + ClCCCCl
Settings | excess molar enthalpy [kcal/mol] | mass density [kg/m3]
[2], x1 = 0.065 | -0.00359 | –
[2], x1 = 0.1452 | -0.00741 | –
[2], x1 = 0.2308 | -0.0129 | –
[2], x1 = 0.3182 | -0.0189 | –
[2], x1 = 0.3939 | -0.0237 | –
[2], x1 = 0.4578 | -0.0251 | –
[2], x1 = 0.5145 | -0.0272 | –
[2], x1 = 0.5379 | -0.027 | –
[2], x1 = 0.5862 | -0.0268 | –
[2], x1 = 0.6669 | -0.0246 | –
[2], x1 = 0.7509 | -0.021 | –
[2], x1 = 0.8484 | -0.0148 | –
[2], x1 = 0.9347 | -0.00765 | –
[3], x1 = 0.0604 | – | 1161.58
[3], x1 = 0.1163 | – | 1145.6
[3], x1 = 0.1772 | – | 1128.25
[3], x1 = 0.2336 | – | 1112.22
[3], x1 = 0.2937 | – | 1095.19
[3], x1 = 0.3531 | – | 1078.45
[3], x1 = 0.4676 | – | 1046.35
[3], x1 = 0.5255 | – | 1030.24
[3], x1 = 0.5854 | – | 1013.57
[3], x1 = 0.6437 | – | 997.42
[3], x1 = 0.7051 | – | 980.49
[3], x1 = 0.7636 | – | 964.45
[3], x1 = 0.8238 | – | 947.98
[3], x1 = 0.8823 | – | 932.02
[3], x1 = 1 | – | 899.81

CCCOC=O [propyl methanoate] + ClCCCl
Settings | excess molar enthalpy [kcal/mol] | mass density [kg/m3]
[2], x1 = 0.074 | -0.00956 | –
[2], x1 = 0.1687 | -0.021 | –
[2], x1 = 0.2733 | -0.0368 | –
[2], x1 = 0.3675 | -0.0478 | –
[2], x1 = 0.4473 | -0.0576 | –
[2], x1 = 0.5035 | -0.0607 | –
[2], x1 = 0.5082 | -0.0609 | –
[2], x1 = 0.5746 | -0.0598 | –
[2], x1 = 0.6509 | -0.0569 | –
[2], x1 = 0.7385 | -0.049 | –
[2], x1 = 0.8389 | -0.0344 | –
[2], x1 = 0.9272 | -0.0184 | –
[3], x1 = 0.0502 | – | 1224.05
[3], x1 = 0.0994 | – | 1203.36
[3], x1 = 0.1495 | – | 1182.95
[3], x1 = 0.2004 | – | 1162.75
[3], x1 = 0.2543 | – | 1141.88
[3], x1 = 0.308 | – | 1121.58
[3], x1 = 0.3635 | – | 1101.24
[3], x1 = 0.4207 | – | 1080.82
[3], x1 = 0.4795 | – | 1060.31
[3], x1 = 0.5379 | – | 1040.49
[3], x1 = 0.599 | – | 1020.32
[3], x1 = 0.6634 | – | 999.69
[3], x1 = 0.7281 | – | 979.46
[3], x1 = 0.7928 | – | 959.73
[3], x1 = 0.8612 | – | 939.48
[3], x1 = 1 | – | 899.81

CCCOC(=O)CC [propyl propanoate]
Settings | mass density [kg/m3]
[1] | 875.61

CCCOC(=O)CC [propyl propanoate] + ClCCCl
Settings | excess molar enthalpy [kcal/mol] | mass density [kg/m3]
[2], x1 = 0.0428 | -0.0129 | –
[2], x1 = 0.1001 | -0.0299 | –
[2], x1 = 0.1671 | -0.0526 | –
[2], x1 = 0.2376 | -0.0758 | –
[2], x1 = 0.3085 | -0.0975 | –
[2], x1 = 0.3736 | -0.115 | –
[2], x1 = 0.4312 | -0.125 | –
[2], x1 = 0.4782 | -0.132 | –
[2], x1 = 0.5177 | -0.133 | –
[2], x1 = 0.5861 | -0.128 | –
[2], x1 = 0.671 | -0.117 | –
[2], x1 = 0.7874 | -0.0853 | –
[2], x1 = 0.9084 | -0.0437 | –
[3], x1 = 0.0347 | – | 1224.28
[3], x1 = 0.0727 | – | 1201.87
[3], x1 = 0.1118 | – | 1180.16
[3], x1 = 0.1538 | – | 1158.1
[3], x1 = 0.1965 | – | 1136.61
[3], x1 = 0.2437 | – | 1114.31
[3], x1 = 0.2932 | – | 1092.38
[3], x1 = 0.3455 | – | 1070.49
[3], x1 = 0.3994 | – | 1049.24
[3], x1 = 0.4599 | – | 1026.87
[3], x1 = 0.5188 | – | 1006.4
[3], x1 = 0.5854 | – | 984.69
[3], x1 = 0.6557 | – | 963.29
[3], x1 = 0.7316 | – | 941.63
[3], x1 = 0.8153 | – | 919.43
[3], x1 = 0.8998 | – | 898.5
[3], x1 = 1 | – | 875.61
